# Molecular target: T1, MC4R (Homo sapiens, UniProt P32245)
# T1 construct: expressed in transfected cells; host or cells: HEK (Human Embryonic Kidney) permanent expression cell line HEK MC4R-Luc, co-expressing CRE-luciferase
# Experiment: MCR agonistic activity (luciferase assay / cAMP accumulation assay) on MC4R
# Format: cell-based
# Conditions: HEK cell lines expressing MC4R; method A (CRE-luciferase) or B (cAMP accumulation), not said which; read-out: EC50 value, agonistic activity to MC4R (range per group of Examples)
# In short: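 HEK cells stably expressing MC4R with a CRE-luciferase reporter treated 5 hours at 37 °C with serially diluted agonist (≤1% DMSO); luminescence expressed relative to 10 nM NDP-MSH, EC50 at half-maximal signal. Alternatively, cAMP measured after 30 minutes with compound plus 500 μM IBMX by [3H]-cAMP competition binding.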
# T1 sequence (P32245 whole entry, species assumed): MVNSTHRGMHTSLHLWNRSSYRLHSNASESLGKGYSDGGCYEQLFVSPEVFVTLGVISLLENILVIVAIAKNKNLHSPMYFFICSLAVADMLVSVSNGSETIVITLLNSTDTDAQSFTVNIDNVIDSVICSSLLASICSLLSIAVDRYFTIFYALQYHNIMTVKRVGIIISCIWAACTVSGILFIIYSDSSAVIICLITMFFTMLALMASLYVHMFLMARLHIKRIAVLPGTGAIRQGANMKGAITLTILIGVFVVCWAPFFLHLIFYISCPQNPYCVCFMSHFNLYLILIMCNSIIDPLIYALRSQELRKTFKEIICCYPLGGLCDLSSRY
row,Compound,EC50 [nM]
1,"CC(=O)N([C@H]1C[C@H](C(=O)N2CCN(C)CC2)N(C(=O)[C@@H]2CN(C(C)C)C[C@H]2c2ccc(Cl)cc2)C1)[C@H]1CC[C@@H](C)CC1 [Example 62, N-{(3S,5R)-1-{[(3S,4R)-4-(4-chlorophenyl)-1-isopropylpyrrolidin-3-yl]carbonyl}-5-[(4-methylpiperazin-1-yl)carbonyl]pyrrolidin-3-yl}-N-(cis-4-methylcyclohexyl)acetamide]",10 to 100
2,"Cc1ccc(N2C[C@@H](C(=O)N3C[C@@H](N(C(=O)C(C)(C)C)C4CCC(C)(C)CC4)C[C@H]3C(=O)N3CCN(C)CC3)[C@H](c3ccc(Cl)cc3)C2)nn1 [Example 63, N-{(3S,5S)-1-{[(3S,4R)-4-(4-chlorophenyl)-1-(6-methylpyridazine-3-yl)pyrrolidin-3-yl]carbonyl}-5-[(4-methylpiperazin-1-yl)carbonyl]pyrrolidin-3-yl}-N-(4,4-dimethylcyclohexyl)-2,2-dimethylpropanamide]",10 to 100
3,"CN1CCN(C(=O)[C@@H]2C[C@H](N(C(=O)C(C)(C)C)C3CCC(C)(C)CC3)CN2C(=O)[C@@H]2CN(c3ccccn3)C[C@H]2c2ccc(Cl)cc2)CC1 [Example 64, N-{(3S,5S)-1-{[(3S,4R)-4-(4-chlorophenyl)-1-pyridine-2-ylpyrrolidin-3-yl]carbonyl}-5-[(4-methylpiperazin-1-yl)carbonyl]pyrrolidin-3-yl}-N-(4,4-dimethylcyclohexyl)-2,2-dimethylpropanamide]",10 to 100
4,"CN1CCN(C(=O)[C@@H]2C[C@H](N(C(=O)[C@@H]3CCCO3)C3CCC(C)(C)CC3)CN2C(=O)[C@@H]2CN(c3ccccn3)C[C@H]2c2ccc(Cl)cc2)CC1 [Example 65, (2S)-N-{(3S,5S)-1-{[(3S,4R)-4-(4-chlorophenyl)-1-pyridine-2-ylpyrrolidin-3-yl]carbonyl}-5-[(4-methylpiperazin-1-yl)carbonyl]pyrrolidin-3-yl}-N-(4,4-dimethylcyclohexyl)tetrahydrofuran-2-carboxamide]",0.1 to 10
5,CC1CCC(N(C(=O)C2CCCO2)C2CC(C(=O)N3CCN(C)CC3)N(C(=O)C3CN(c4cccnn4)CC3c3ccc(F)cc3F)C2)CC1 (stereo not drawn) [Example 66],0.1 to 10
6,"CN1CCN(C(=O)[C@@H]2C[C@H](N(C(=O)C(C)(C)C)C3CCC(C)(C)CC3)CN2C(=O)[C@@H]2CN(c3ncccn3)C[C@H]2c2ccc(Cl)cc2)CC1 [Example 67, N-{(3S,5S)-1-{[(3S,4R)-4-(4-chlorophenyl)-1-pyrimidine-2-ylpyrrolidin-3-yl]carbonyl}-5-[(4-methylpiperazin-1-yl)carbonyl]pyrrolidin-3-yl}-N-(4,4-dimethylcyclohexyl)-2,2-dimethylpropanamide]",1000 to 10000
7,"CN1CCN(C(=O)[C@@H]2C[C@H](N(C(=O)[C@@H]3CCCO3)[C@H]3CC[C@@H](C)CC3)CN2C(=O)[C@@H]2CN(c3ccccn3)C[C@H]2c2ccc(F)cc2F)CC1 [Example 68, (2S)-N-{(3S,5S)-1-{[(3S,4R)-4-(2,4-difluorophenyl)-1-pyridine-2-ylpyrrolidin-3-yl]carbonyl}-5-[(4-methylpiperazin-1-yl)carbonyl]pyrrolidin-3-yl}-N-(cis-4-methylcyclohexyl)tetrahydrofuran-2-carboxamide]",0.1 to 10
8,"CN1CCN(C(=O)[C@@H]2C[C@H](N(C(=O)[C@@H]3CCCO3)[C@H]3CC[C@@H](C)CC3)CN2C(=O)[C@@H]2CN(c3ccc(C#N)cn3)C[C@H]2c2ccc(Cl)cc2)CC1 [Example 69, (2S)-N-{(3S,5S)-1-{[(3S,4R)-4-(4-chlorophenyl)-1-(5-cyanopyridine-2-yl)pyrrolidin-3-yl]carbonyl}-5-[(4-methylpiperazin-1-yl)carbonyl]pyrrolidin-3-yl}-N-(cis-4-methylcyclohexyl)tetrahydrofuran-2-carboxamide]",0.1 to 10
9,"CN1CCN(C(=O)[C@@H]2C[C@H](N(C(=O)C(C)(C)C)C3CCC(C)(C)CC3)CN2C(=O)[C@@H]2CN(c3nccs3)C[C@H]2c2ccc(Cl)cc2)CC1 [Example 70, N-{(3S,5S)-1-{[(3S,4R)-4-(4-chlorophenyl)-1-(1,3-thiazole-2-yl)pyrrolidin-3-yl]carbonyl}-5-[(4-methylpiperazin-1-yl)carbonyl]pyrrolidin-3-yl}-N-(4,4-dimethylcyclohexyl)-2,2-dimethylpropanamide]",100 to 1000
10,"Cc1ccccc1N1C[C@@H](C(=O)N2C[C@@H](N(C(=O)[C@@H]3CCCO3)[C@H]3CC[C@@H](C)CC3)C[C@H]2C(=O)N2CCN(C)CC2)[C@H](c2ccc(Cl)cc2)C1 [Example 71, (2S)-N-{(3S,5S)-1-{[(3S,4R)-4-(4-chlorophenyl)-1-(2-methylphenyl)pyrrolidin-3-yl]carbonyl}-5-[(4-methylpiperazin-1-yl)carbonyl]pyrrolidin-3-yl}-N-(cis-4-methylcyclohexyl)tetrahydrofuran-2-carboxamide]",1000 to 10000
11,"CN1CCN(C(=O)[C@@H]2C[C@H](N(C(=O)[C@@H]3CCCO3)[C@H]3CC[C@@H](C)CC3)CN2C(=O)[C@@H]2CN(c3ccc(=O)n(C)n3)C[C@H]2c2ccc(Cl)cc2)CC1 [Example 72, (2S)-N-{(3S,5S)-1-{[(3S,4R)-4-(4-chlorophenyl)-1-(1-methyl-6-oxo-1,6-dihydropyridazine-3-yl)pyrrolidin-3-yl]carbonyl}-5-[(4-methylpiperazin-1-yl)carbonyl]pyrrolidin-3-yl}-N-(cis-4-methylcyclohexyl)tetrahydrofuran-2-carboxamide]",0.1 to 10
12,"CN1CCN(C(=O)[C@@H]2C[C@H](N(C(=O)[C@@H]3CCCO3)[C@H]3CC[C@@H](C)CC3)CN2C(=O)[C@@H]2CN(c3ccc(=O)[nH]n3)C[C@H]2c2ccc(Cl)cc2)CC1 [Example 73, (2S)-N-{(3S,5S)-1-{[(3S,4R)-4-(4-chlorophenyl)-1-(6-oxo-1,6-dihydropyridazine-3-yl)pyrrolidin-3-yl]carbonyl]-5-[(4-methylpiperazin-1-yl)carbonyl]pyrrolidin-3-yl}-N-(cis-4-methylcyclohexyl)tetrahydrofuran-2-carboxamide]",0.1 to 10
13,"CN1CCN(C(=O)[C@@H]2C[C@H](N(C(=O)[C@@H]3CCCO3)[C@H]3CC[C@@H](C)CC3)CN2C(=O)[C@H]2CN(C(C)(C)C)C[C@H]2c2ccc(Cl)cc2)CC1 [Example 74, (2S)-N-{(3S,5S)-1-{[(3R,4R)-1-tert-butyl-4-(4-chlorophenyl)pyrrolidin-3-yl]carbonyl}-5-[(4-methylpiperazin-1-yl)carbonyl]pyrrolidin-3-yl}-N-(cis-4-methylcyclohexyl)tetrahydrofuran-2-carboxamide]",10 to 100
14,"CN1CCN(C(=O)[C@@H]2C[C@H](N(C(=O)[C@@H]3CCCO3)[C@H]3CC[C@@H](C)CC3)CN2C(=O)[C@@H]2CN(C(C)(C)C)C[C@@H]2c2ccc(Cl)cc2)CC1 [Example 75, (2S)-N-{(3S,5S)-1-{[(3S,4S)-1-tert-butyl-4-(4-chlorophenyl)pyrrolidin-3-yl]carbonyl}-5-[(4-methylpiperazin-1-yl)carbonyl]pyrrolidin-3-yl}-N-(cis-4-methylcyclohexyl)tetrahydrofuran-2-carboxamide]",1000 to 10000
15,"CN1CCN(C(=O)[C@@H]2C[C@@H](N(C(=O)[C@@H]3CCCO3)[C@H]3CC[C@@H](C)CC3)CN2C(=O)[C@@H]2CN(C(C)(C)C)C[C@H]2c2ccc(Cl)cc2)CC1 [Example 76, (2S)-N-{(3R,5S)-1-{[(3S,4R)-1-tert-butyl-4-(4-chlorophenyl)pyrrolidin-3-yl]carbonyl}-5-[(4-methylpiperazin-1-yl)carbonyl]pyrrolidin-3-yl}-N-(cis-4-methylcyclohexyl)tetrahydrofuran-2-carboxamide]",100 to 1000

# Reference: patent US8183243B2, “Melanocortin receptor agonists” (LG Life Sciences Ltd., priority 2008, dated 2012)
